Source: US20120220603A1, “SUBSTITUTED HETEROCYCLIC DERIVATIVES FOR THE TREATMENT OF PAIN AND EPILEPSY” (ZALICUS PHARMACEUTICALS LTD., priority 2009, published 2012)

Assays:
[1] = biological target: T1, human Nav1.5 channel (Homo sapiens, UniProt Q14524); test: NaV1.5 sodium channel screening assay, PatchXpress automated electrophysiology, cardiac action potential waveform 1 Hz; type: cell-based; conditions: cardiac action potential waveform at 1 Hz; HEK cells; read-out: HNAv 1.5 Cardiac AP 1 Hz IC50
T1 construct: expressed in transfected cells; host or cells: HEK cells
Protocol: Inhibition of the TTX-resistant NaV1.5 sodium channel, a key cardiac ion channel, can have profound effects on the duration and amplitude of the cardiac action potential and can result in arrhythmias and other heart malfunctions. To assess the potential cardiac liability of compounds at an early stage in the drug discovery process, a NaV1.5 sodium channel screening assay is performed on Molecular Device's PatchXpress™ automated electrophysiology platform. Under voltage-calmp conditions, NaV1.5 currents were recorded from HEK cells expressing the human Nav1.5 channel in the absence and presence of increasing concentrations of the test compound to obtain an IC50 value. The external recording solution contained (in mM): 90 TEACl, 50 NaCl, 1.8 CaCl, 1 MgCl2, 10 HEPES, 10 glucose, adjusted to pH 7.4 with TEA-OH and to 300 mOsm with sucrose (if necessary), while the internal patch pipette solution contained (in mM): 129 CsF, 2 MgCl2, 11 EGTA, 10 HEPES, 3 Na2ATP adjusted to pH 7.2 with CsOH and to 290 mOsm with sucrose (if necessary). NaV1.5 channel currents were evoked using a cardiac action potential waveform at 1 Hz, digitized at 31.25 kHz and low-pass filtered at 12 kHz.

[2] = Rat Early Pharmacokinetic (EPK) study; type: in vivo; conditions: PO, 3 mg/kg, formulation PG (propylene glycol); for Tmax: male, Sprague-Dawley, blood
Protocol: Male Sprague-Dawley rats were dosed via oral (PO) gavage in the detailed formulation. Blood samples were collected from the animals at 6 timepoints out to 4 hours post-dose. Pharmacokinetic analysis was performed on the LC-MS/MS measured concentrations for each timepoint of each compound.

[3] = tested on: mice on rotarod; test: Mouse rotarod assay (minimal muscular or neurological impairment); type: in vivo
Protocol: (§1) To assess a compound's undesirable side effects (toxicity), animals were monitored for overt signs of impaired neurological or muscular function. In mice, the rotarod procedure (Dunham and Miya, J. Am. Pharmacol. Assoc. 46:208-209 (1957)) is used to disclose minimal muscular or neurological impairment (MMI). When a mouse is placed on a rod that rotates at a speed of 6 rpm, the animal can maintain its equilibrium for long periods of time. The animal is considered toxic if it falls off this rotating rod three times during a 1-min period.

[4] = as above; type: in vivo; conditions: mouse, in vivo, mice
Protocol: as §1

[5] = biological target: T2, CaV3.2 T-type Ca2+ channels expressed in HEK cells (Homo sapiens, UniProt O95180); test: CaV3.2 voltage-clamp electrophysiological assay (fast and slow inactivation); type: cell-based
T2 construct: expressed in transfected cells; host or cells: HEK cells
Source text: Prior to recording currents from CaV3.2 T-type Ca^2+ channels expressed in HEK cells, the culture media was replaced with extracellular solution (ECS) containing (in mM): 142 CsCl, 10 D-glucose, 2 CaCl2, 1 MgCl2, 10 HEPES, pH adjusted to 7.4 with CsOH. Borosilicate glass patch pipettes, pulled on a P-97 micropipette puller (Sutter Instruments, Novato, Calif.) with typical resistances of 2-4 MW, were backfilled with intracellular solution containing (in mM): 126.5 Cs-methanesulphonate, 2 MgCl2, 10 HEPES, 11 EGTA, 2 Na-ATP, pH adjusted to 7.3 CsOH. […] were recorded in the whole-cell configuration at room temperature (˜21° C.) using an Axopatch 200B (Molecular Devices, Sunnyvale, Calif.) patch-clamp amplifier. Recordings were low-pass filtered at 1 kHz (−3 dB 4-pole Bessel filter), digitized at 2 kHz with a Digidata 1322A interface (Molecular Devices), and acquired using pClamp 9.2 (Molecular Devices). No leak subtraction was used. Test compounds, prepared as 30 mM stock solutions in DMSO and diluted in extracellular buffer, were applied through a gravity driven multi-barrelled array of capillaries (24 gauge) connected to reservoirs controlled by solenoid valves. The effects of compounds on CaV3.2 slow and fast inactivation were evaluated using four different voltage protocols. The voltage dependence of fast and slow channel inactivation was examined using a two pulse protocol. Data were analyzed and fitted using OriginPro v.7.5 (OriginLab, Northampton, Mass.) software.

T2 sequence (O95180 whole entry): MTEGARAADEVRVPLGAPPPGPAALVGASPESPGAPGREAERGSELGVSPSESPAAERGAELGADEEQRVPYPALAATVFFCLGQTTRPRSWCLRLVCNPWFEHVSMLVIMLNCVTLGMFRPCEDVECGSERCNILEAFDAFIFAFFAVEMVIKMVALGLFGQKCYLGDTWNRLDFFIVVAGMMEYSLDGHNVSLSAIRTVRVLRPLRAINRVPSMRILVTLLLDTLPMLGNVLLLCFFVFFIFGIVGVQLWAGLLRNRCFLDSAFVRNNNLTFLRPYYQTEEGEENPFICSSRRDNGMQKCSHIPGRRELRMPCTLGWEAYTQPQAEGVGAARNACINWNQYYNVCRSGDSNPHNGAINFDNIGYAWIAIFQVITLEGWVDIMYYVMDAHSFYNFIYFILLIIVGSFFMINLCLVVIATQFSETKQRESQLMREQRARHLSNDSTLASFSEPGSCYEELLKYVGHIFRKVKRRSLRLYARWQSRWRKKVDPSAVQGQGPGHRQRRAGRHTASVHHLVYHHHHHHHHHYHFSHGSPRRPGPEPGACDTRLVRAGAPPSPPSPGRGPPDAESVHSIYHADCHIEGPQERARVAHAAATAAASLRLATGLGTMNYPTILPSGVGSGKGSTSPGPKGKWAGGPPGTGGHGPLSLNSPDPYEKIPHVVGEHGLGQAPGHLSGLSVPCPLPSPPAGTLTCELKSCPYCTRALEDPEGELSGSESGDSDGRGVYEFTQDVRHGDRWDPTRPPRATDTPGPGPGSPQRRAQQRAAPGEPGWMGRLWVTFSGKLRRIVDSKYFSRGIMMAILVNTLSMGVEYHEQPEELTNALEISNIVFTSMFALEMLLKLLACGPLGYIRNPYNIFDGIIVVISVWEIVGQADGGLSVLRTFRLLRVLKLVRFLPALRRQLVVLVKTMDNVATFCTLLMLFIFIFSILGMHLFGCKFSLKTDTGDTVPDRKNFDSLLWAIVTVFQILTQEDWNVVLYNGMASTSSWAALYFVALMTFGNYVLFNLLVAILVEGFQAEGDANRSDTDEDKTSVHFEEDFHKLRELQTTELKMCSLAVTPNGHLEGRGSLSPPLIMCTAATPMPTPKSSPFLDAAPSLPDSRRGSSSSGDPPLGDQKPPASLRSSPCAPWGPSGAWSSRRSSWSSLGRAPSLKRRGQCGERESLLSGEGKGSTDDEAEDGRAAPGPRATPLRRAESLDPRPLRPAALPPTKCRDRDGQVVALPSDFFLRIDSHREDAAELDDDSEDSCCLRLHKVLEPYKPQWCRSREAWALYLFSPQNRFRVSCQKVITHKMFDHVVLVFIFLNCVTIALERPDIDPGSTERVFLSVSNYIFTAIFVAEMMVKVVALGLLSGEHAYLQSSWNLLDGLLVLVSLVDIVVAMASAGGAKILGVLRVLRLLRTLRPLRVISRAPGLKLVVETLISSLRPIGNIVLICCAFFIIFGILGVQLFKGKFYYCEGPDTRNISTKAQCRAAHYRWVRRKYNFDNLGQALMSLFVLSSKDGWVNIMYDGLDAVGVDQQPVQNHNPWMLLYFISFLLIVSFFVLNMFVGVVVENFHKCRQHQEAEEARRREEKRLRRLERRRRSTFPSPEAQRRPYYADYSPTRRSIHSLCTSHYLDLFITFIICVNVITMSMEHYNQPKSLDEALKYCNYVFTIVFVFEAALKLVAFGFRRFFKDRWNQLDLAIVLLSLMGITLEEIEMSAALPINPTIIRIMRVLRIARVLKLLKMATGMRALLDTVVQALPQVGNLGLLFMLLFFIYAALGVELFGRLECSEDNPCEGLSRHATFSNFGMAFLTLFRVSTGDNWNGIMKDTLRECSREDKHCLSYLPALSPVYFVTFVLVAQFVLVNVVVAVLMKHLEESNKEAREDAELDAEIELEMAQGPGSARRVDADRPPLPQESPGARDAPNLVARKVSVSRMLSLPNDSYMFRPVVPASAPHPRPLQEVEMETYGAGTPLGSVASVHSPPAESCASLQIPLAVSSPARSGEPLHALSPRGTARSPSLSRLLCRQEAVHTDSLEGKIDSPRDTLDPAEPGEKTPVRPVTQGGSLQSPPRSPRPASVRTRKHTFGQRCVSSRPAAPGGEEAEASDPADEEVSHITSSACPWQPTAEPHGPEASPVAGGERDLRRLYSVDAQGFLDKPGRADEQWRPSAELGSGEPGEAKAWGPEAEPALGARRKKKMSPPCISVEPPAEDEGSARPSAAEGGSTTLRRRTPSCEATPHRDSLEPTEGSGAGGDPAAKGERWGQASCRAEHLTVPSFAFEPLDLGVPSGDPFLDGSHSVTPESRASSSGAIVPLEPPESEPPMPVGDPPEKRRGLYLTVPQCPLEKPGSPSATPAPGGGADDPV
T1 sequence (Q14524 whole entry): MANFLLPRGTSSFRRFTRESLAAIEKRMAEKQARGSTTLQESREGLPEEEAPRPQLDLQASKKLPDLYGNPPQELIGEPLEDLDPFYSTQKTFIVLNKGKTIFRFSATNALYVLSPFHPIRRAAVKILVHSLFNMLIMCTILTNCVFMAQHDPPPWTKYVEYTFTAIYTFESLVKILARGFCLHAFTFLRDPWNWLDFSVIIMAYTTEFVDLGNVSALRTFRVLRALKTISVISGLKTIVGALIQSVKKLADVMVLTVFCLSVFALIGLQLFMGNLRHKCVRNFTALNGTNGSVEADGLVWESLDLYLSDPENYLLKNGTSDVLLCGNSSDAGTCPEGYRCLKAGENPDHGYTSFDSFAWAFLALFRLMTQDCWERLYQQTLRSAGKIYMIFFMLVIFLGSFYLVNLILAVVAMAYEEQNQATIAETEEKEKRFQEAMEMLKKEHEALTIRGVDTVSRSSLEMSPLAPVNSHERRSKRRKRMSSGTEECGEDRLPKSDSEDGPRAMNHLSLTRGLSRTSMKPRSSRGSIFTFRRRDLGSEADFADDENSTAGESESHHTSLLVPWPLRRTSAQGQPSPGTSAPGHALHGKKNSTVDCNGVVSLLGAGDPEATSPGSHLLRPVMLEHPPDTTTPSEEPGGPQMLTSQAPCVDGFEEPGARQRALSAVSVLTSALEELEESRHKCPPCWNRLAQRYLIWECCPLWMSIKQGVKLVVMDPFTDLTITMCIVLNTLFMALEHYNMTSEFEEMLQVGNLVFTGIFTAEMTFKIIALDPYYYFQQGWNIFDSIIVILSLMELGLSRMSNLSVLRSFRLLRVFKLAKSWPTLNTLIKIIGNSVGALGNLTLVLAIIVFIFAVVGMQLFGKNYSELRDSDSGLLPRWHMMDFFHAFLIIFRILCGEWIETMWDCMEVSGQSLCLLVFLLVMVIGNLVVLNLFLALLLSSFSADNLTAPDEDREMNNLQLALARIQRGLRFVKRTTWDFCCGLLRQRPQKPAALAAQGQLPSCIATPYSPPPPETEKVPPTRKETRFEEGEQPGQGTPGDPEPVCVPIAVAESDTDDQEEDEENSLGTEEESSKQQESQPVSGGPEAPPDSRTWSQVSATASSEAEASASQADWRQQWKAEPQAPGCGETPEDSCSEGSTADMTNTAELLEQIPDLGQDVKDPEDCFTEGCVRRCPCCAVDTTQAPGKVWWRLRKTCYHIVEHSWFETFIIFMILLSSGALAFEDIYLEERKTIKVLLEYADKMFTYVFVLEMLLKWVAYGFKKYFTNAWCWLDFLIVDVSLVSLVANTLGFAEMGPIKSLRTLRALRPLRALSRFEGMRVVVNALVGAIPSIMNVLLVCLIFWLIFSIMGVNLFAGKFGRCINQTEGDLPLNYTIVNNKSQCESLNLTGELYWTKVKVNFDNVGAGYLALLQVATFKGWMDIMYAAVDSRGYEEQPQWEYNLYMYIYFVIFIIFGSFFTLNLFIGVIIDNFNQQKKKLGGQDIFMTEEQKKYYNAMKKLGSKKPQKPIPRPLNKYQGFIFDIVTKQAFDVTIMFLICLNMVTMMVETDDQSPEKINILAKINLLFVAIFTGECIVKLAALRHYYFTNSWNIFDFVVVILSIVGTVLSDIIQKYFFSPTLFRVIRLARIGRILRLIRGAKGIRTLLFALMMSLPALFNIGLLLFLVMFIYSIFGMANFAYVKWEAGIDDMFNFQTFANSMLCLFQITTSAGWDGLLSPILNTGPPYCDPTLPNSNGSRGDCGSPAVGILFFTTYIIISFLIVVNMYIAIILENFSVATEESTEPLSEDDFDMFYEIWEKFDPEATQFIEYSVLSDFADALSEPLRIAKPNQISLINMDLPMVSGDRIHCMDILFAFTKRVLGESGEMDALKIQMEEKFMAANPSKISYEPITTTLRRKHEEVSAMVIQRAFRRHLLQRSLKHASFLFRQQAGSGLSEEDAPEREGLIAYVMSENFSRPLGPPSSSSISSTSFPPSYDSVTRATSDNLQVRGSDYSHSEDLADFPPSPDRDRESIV

| SMILES | IC50 [1] | Dose Normalized AUC [2] | Dose Normalized Cmax [2] | Tmax [2] | % Impaired ([3]; 0.25 hr) | % Impaired ([3]; 0.5 hr) | % Impaired ([3]; 1 hr) | % Impaired ([3]; 2 hr) | % Impaired ([3]; 4 hr) | TD50 [4] | Fraction of current recovered at 5.1 s interval ([5]; 5.1 s interval) | Fraction current remaining at −40 mV ([5]; at −40 mV) | V1/2 slow inactivation ([5]; voltage-dependence of half inactivation, HEK cells, whole-cell) |
| --- | --- | --- | --- | --- | --- | --- | --- | --- | --- | --- | --- | --- | --- |
| O=C(CN1CCNCC1=O)Nc1cc(C(F)(F)F)cc(C(F)(F)F)c1 [Compound 1, N-(3,5-bis(trifluoromethyl)phenyl)-2-(2-oxopiperazin-1-yl)acetamide] | 100 µM | 1,118 nM*h | 438 nM | 15 min | 0% | 0% | 0% | 0% | 0% | 300 mg/kg | – | – | – |
| O=C1CN(CC(=O)Nc2cc(C(F)(F)F)cc(C(F)(F)F)c2)CCN1 [Compound 9, N-(3,5-bis(trifluoromethyl)phenyl)-2-(3-oxopiperazin-1-yl)acetamide] | 80 µM | 1,120 nM*h | 484 nM | 84 min | 0% | 0% | 0% | 0% | 0% | – | *0.80 | **0.32 | **−83 mV |
